The results in this text go back to ChEMBL document CHEMBL5029194, “Discovery and Optimization of 7-Alkylidenyltetrahydroindazole-Based Acylsulfonamide EP3 Antagonists” (ACS Med Chem Lett, 2022).

By Cmax is commonly meant the peak of the concentration-time curve. For orientation: half-life means the time in which the quantity being followed falls by half. As a reminder, the clearance is the rate of elimination divided by the concentration. Low values mean inefficient removal, high ones efficient removal. In general, AUC(0-t) refers to the area under the concentration-time curve up to a stated or last time point. Read a high AUC(0-t) as high exposure. The term bioavailability denotes dose-corrected exposure relative to a reference, in per cent. Low readings indicate poor availability, high ones good availability. One may read the Ki as a dissociation constant, usually derived from enzyme kinetics or from competition with a known ligand.

A short description of data set [1]: Cmax in Sprague-Dawley rat at 10 mg/kg, po measured up to 24 hrs by LC-MS-MS analysis. Format: ADME, organism-based. More on the design: route oral, dose 10 mg/kg, time <=24. To be noted: in vivo.
The nature of data set [2]: Half life in Sprague-Dawley rat at 2 mg/kg, iv measured up to 24 hrs by LC-MS-MS analysis. The class given is ADME, organism-based. As to conditions: in vivo.
Data set [3] in a line: Clearance in Sprague-Dawley rat at 2 mg/kg, iv measured up to 24 hrs by LC-MS-MS analysis. Format: ADME, organism-based. As to conditions: in vivo.
Data set [4] in a line: Volume of distribution at steady state in Sprague-Dawley rat at 2 mg/kg, iv measured up to 24 hrs by LC-MS-MS analysis. The class given is ADME, organism-based. To be noted: in vivo, read-out: Vdss.
Data set [5] is described as follows: Half life in Sprague-Dawley rat at 10 mg/kg, po measured up to 24 hrs by LC-MS-MS analysis. Format: ADME, organism-based. To be noted: in vivo.
A short description of data set [6]: AUC(0 to 24 hrs) in Sprague-Dawley rat at 10 mg/kg, po measured up to 24 hrs by LC-MS-MS analysis. Format: ADME, organism-based. More on the design: route oral, dose 10 mg/kg, time <=24. To be noted: in vivo.
Data set [7] can be described thus: Oral bioavailability in Sprague-Dawley rat at 10 mg/kg measured up to 24 hrs by LC-MS-MS analysis. The class given is ADME, organism-based. To be noted: in vivo.
A short description of data set [8]: AUClast in Sprague-Dawley rat at 10 mg/kg, po measured up to 24 hrs by LC-MS-MS analysis. Format: ADME, organism-based. The arrangement: route oral, dose 10 mg/kg, time <=24. As to conditions: in vivo.
The nature of data set [9]: Cmax in Sprague-Dawley rat at 10 mg/kg, po measured up to 7 hrs by LC-MS-MS analysis. More on the design: route oral, dose 10 mg/kg, time <=7. Format: ADME, organism-based. As to conditions: in vivo.
The nature of data set [10]: AUClast in Sprague-Dawley rat at 10 mg/kg, po measured up to 7 hrs by LC-MS-MS analysis. Format: ADME, organism-based. The arrangement: route oral, dose 10 mg/kg, time <=7. As to conditions: in vivo.
Data set [11] concerns the target T1, Prostaglandin E2 receptor EP1 subtype (Homo sapiens, UniProt P34995).
T1 sequence (P34995 whole entry): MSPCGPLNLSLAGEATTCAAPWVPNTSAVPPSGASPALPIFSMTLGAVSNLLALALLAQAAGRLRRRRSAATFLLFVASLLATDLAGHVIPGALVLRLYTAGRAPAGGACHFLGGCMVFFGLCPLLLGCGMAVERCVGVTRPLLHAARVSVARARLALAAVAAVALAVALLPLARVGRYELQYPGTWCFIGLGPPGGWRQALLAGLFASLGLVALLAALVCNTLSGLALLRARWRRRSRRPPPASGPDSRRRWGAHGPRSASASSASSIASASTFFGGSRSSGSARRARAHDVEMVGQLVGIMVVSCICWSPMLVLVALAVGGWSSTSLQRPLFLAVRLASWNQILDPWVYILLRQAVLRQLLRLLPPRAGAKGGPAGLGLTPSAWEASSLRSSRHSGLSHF
The data set is described as follows: Binding affinity to human EP1 receptor assessed as inhibition constant.

Data set [12] concerns the target Prostaglandin E2 receptor EP2 subtype (Homo sapiens, UniProt P43116). Put plainly: Binding affinity to human EP2 receptor assessed as inhibition constant.
For data set [13], the target named is Prostaglandin E2 receptor EP4 subtype (Homo sapiens, UniProt P35408). The data set is described as follows: Binding affinity to human EP4 receptor assessed as inhibition constant.
Sequence of Prostaglandin E2 receptor EP4 subtype (P35408 whole entry): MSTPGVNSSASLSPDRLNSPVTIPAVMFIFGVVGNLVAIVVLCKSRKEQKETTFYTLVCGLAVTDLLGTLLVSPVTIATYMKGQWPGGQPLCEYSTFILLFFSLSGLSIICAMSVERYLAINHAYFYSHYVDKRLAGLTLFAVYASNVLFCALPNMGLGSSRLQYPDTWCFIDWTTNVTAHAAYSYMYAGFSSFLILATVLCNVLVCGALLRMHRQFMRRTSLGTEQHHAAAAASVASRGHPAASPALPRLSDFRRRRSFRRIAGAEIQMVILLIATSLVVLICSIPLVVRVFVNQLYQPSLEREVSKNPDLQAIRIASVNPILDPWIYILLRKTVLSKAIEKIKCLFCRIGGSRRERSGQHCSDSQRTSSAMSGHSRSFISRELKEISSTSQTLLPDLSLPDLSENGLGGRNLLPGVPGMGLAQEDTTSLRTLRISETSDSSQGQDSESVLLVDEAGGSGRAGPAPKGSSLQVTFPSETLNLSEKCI
Data set [14] concerns the target T2, Prostaglandin E2 receptor EP3 subtype (Rattus norvegicus, UniProt P34980).
T2 sequence (P34980 whole entry): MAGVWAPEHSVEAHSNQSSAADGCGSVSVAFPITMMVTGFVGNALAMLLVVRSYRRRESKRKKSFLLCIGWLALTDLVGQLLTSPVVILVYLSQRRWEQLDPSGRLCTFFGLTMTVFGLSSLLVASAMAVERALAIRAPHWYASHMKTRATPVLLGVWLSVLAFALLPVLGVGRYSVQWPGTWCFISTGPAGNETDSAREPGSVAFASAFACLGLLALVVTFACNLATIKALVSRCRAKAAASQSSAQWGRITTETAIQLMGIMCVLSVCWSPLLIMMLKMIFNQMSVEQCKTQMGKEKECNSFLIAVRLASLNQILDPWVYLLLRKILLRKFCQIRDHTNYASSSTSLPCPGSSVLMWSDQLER
The data set is described as follows: Binding affinity to rat EP3 receptor assessed as inhibition constant.

Data set [15] concerns Rattus norvegicus. The data set is described as follows: In vivo antagonist activity at […] receptor in Sprague-Dawley rat assessed as reversal of sulprostone induced reduction in circulating insulin levels at 10 times Ki, administered as iv infusion measured up to 30 mins after glucose administration by glucose tolerance test. The class given is functional, organism-based. To be noted: time min <=30.

A short description of data set [16]: Free plasma concentration in Sprague-Dawley rat at 10 times Ki administered as iv infusion measured after 2 to 50 mins. Format: ADME, organism-based. To be noted: in vivo, time 2-50 min.

SMILES strings stand for the structures. The source made the active and inactive calls. No cut-off for these calls is given here. Some results are limits rather than exact numbers.

Sequence of Prostaglandin E2 receptor EP2 subtype (P43116 whole entry): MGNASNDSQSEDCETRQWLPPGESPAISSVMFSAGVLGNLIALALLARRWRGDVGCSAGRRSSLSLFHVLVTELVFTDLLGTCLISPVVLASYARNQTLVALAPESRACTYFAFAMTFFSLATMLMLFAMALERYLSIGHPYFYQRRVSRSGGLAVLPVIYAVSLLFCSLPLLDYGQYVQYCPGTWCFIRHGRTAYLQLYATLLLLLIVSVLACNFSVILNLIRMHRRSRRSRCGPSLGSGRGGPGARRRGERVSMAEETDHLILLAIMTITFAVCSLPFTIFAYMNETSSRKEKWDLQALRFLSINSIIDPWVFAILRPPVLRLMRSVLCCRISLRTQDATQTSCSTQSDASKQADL

The compound `O=C(NS(=O)(=O)c1ccc(Cl)cc1)OC/C=C1\CCCc2cnn(Cc3ccc(Cl)cc3Cl)c21` returned a Cmax in data set [1] of 750 nM. In addition, the half-life was 210 min in [2] and 216 min in data set [5]. The clearance in data set [3] was 21.3 mL/min/kg. Also, the Vd in data set [4] stood at 4.61 L/kg. Moreover, the AUC(0-t) in data set [6] came to 7.43 µM·h. In data set [7], this compound displayed a bioavailability of 46%.

Regarding `O=C(NC/C=C1\CCCc2cnn(Cc3ccc(Cl)cc3Cl)c21)NS(=O)(=O)c1cc(Cl)c(Cl)s1`, in data set [1], the Cmax was determined as 1670 nM. Besides, in [8], the exposure AUC(0-t) at 24 h amounted to 2.75 µM·h. The values for the half-life in data set [2] and in [5] were 47.4 min and 168 min, respectively. The same compound came in with a clearance in [3] of 81.2 mL/min/kg. For the same compound, the Vd in [4] stood at 2.21 L/kg. The compound also gave an area under the curve AUC(0-t) in data set [6] of 2.75 µM·h. For the same compound, the bioavailability in data set [7] stood at 84%.

Consider `O=C(NC/C(F)=C1\CCCc2cnn(-c3ccc(C(F)(F)F)cc3)c21)NS(=O)(=O)c1cc(Cl)c(Cl)s1`, for which the Cmax in data set [9] amounted to 700 nM. In data set [10], this compound displayed an AUC(0-t) at 7 h of 3.68 µM·h.

In the case of `Cc1ncc(S(=O)(=O)NC(=O)NC/C=C2\CCCc3cnn(Cc4ccc(Cl)cc4Cl)c32)s1`, the Cmax in data set [9] came out at 510 nM. The compound further gave an exposure AUC(0-t) at 7 h in [10] of 2.4 µM·h.

In the case of `O=C(NC/C=C1\CCCc2cnn(C3CCN(c4ccc(F)cc4)CC3)c21)NS(=O)(=O)c1cc(Cl)c(Cl)s1`, the Cmax in data set [9] turned out to be 130 nM. This compound gave an AUC(0-t) at 7 h in data set [10] of 0.73 µM·h.

In the case of `O=C(NC/C=C1\CCCc2cnn(-c3ccc(C(F)(F)F)cc3)c21)NS(=O)(=O)c1cc(Cl)c(Cl)s1`, the Cmax in data set [9] is 1540 nM. The AUC(0-t) at 7 h in data set [10] came to 7.39 µM·h.

In data set [9], `COc1ccc(Cl)cc1S(=O)(=O)NC(=O)NC/C(F)=C1\CCCc2cnn(Cc3ccc(Cl)cc3Cl)c21` had a maximum concentration (Cmax) of 4750 nM. Also, the AUC(0-t) at 7 h in [10] amounted to 10.8 µM·h.

With `COc1ccc(S(=O)(=O)NC(=O)NC/C(F)=C2\CCCc3cnn(Cc4ccc(Cl)cc4Cl)c32)cc1Cl`, the Cmax in [1] was 9390 nM; in [9] it was 7100 nM. This compound gave an area under the curve AUC(0-t) at 7 h in data set [10] of 31.9 µM·h. The half-life in data set [2] is 372 min; in data set [5], 174 min. The clearance in data set [3] is 2.6 mL/min/kg. Also, in data set [4], the Vd was 0.346 L/kg. The exposure AUC(0-t) in data set [6] came to 49 µM·h. The bioavailability in [7] was 44%.

Regarding `O=C(NC/C=C1\CCCc2cnn(Cc3ccc(Cl)cc3Cl)c21)NS(=O)(=O)c1ccc(Cl)cc1`, the inhibitory constant (Ki) in data set [11] is 3.5 µM; in data set [12], greater than 10 µM; in data set [13], greater than 10 µM; in data set [14], 3.6 nM. In addition, in data set [15], the result was Active. The “Cp(f)” value in data set [16] is 36 nM. Besides, in data set [1], the Cmax is 1110 nM. Besides, the AUC(0-t) at 24 h in data set [8] is 5.27 µM·h. In addition, the results for the half-life in [2] and in data set [5] were 114 min and 168 min, respectively. In [3], this compound registered a clearance of 14.9 mL/min/kg. For the same compound, the Vd in [4] amounted to 1.44 L/kg. Besides, the exposure AUC(0-t) in [6] stood at 5.27 µM·h. This compound registered a bioavailability in data set [7] of 25%.

Regarding `Cc1cc(S(=O)(=O)NC(=O)NC/C(F)=C2\CCCc3cnn(Cc4ccc(Cl)cc4Cl)c32)sc1Cl`, the Cmax was 9950 nM in data set [1] and 11200 nM in data set [9]. The compound also gave an AUC(0-t) at 7 h in data set [10] of 57.8 µM·h. Further, the half-life in [2] is 354 min; in data set [5] it was 192 min. Also, in data set [3], the clearance was found to be 1.66 mL/min/kg. In data set [4], the Vd amounted to 0.491 L/kg. In [6], this compound registered an AUC(0-t) of 96.2 µM·h. The bioavailability in data set [7] is 55%.

In data set [1], `O=C(NS(=O)(=O)c1cc(Cl)c(Cl)s1)OC/C=C1\CCCc2cnn(Cc3ccc(Cl)cc3Cl)c21` gave a maximum concentration (Cmax) of 130 nM. Moreover, the half-life in data set [2] was 126 min; in data set [5], 138 min. This compound also showed a clearance in [3] of 71.7 mL/min/kg. Also, the Vd in [4] is 3.45 L/kg. The AUC(0-t) in [6] is 0.89 µM·h. The bioavailability in data set [7] stood at 24%.

With `O=C(NC/C(F)=C1\CCCc2cnn(Cc3ccc(Cl)cc3Cl)c21)NS(=O)(=O)c1cc(Cl)c(Cl)s1`, in data set [9], the concentration peaked (Cmax) at 3820 nM. In data set [10], this compound returned an AUC(0-t) at 7 h of 16.6 µM·h.
